What was measured:
[1] = Cmax in CD1 mouse at 5 mg/kg, po after 0.25 to 24 hrs; assay type: ADME, organism-based; set-up: dose 5 mg/kg, route oral; conditions: in vivo
[2] = Half life in CD1 mouse at 5 mg/kg, po after 0.25 to 24 hrs; assay type: ADME, organism-based; conditions: in vivo
[3] = Inhibition of Hepatitis C virus genotype 1a H77 replicon NS5A M28T mutant transfected in human HuH7 cells assessed as decrease in replication of viral replicon after 4 days by luciferase reporter gene assay; assay type: cell-based, Hepatitis C virus (isolate H77); conditions: Huh-7, 96 h
[4] = Inhibition of Hepatitis C virus genotype 2a replicon NS5A transfected in human HuH7 cells assessed as decrease in replication of viral replicon after 4 days by luciferase reporter gene assay; assay type: cell-based, Hepatitis C virus subtype 2a; conditions: Huh-7, 96 h
[5] = Inhibition of Hepatitis C virus genotype 1a H77 replicon NS5A transfected in human HuH7 cells assessed as decrease in replication of viral replicon in presence of 40% human plasma after 4 days by luciferase reporter gene assay; assay type: cell-based, Hepatitis C virus (isolate H77); conditions: Huh-7, Plasma, 96 h
[6] = AUC in Sprague-Dawley rat at 3 mg/kg, po administered via gavage after 0.25 to 24 hrs; assay type: ADME, organism-based; set-up: time upper 24 hr, dose 3 mg/kg, time lower 0.25 hr, route oral; conditions: in vivo
[7] = Oral bioavailability in CD1 mouse at 5 mg/kg after 0.25 to 24 hrs; assay type: ADME, organism-based; conditions: in vivo
[8] = test system: Hepatitis C virus (isolate H77); assay: Resistance ratio of EC50 for Hepatitis C virus genotype 1a H77 replicon NS5A M28T mutant to EC50 for Hepatitis C virus genotype 1a H77 replicon NS5A
[9] = Half life in CD1 mouse at 5 mg/kg, iv after 0.1 to 24 hrs; assay type: ADME, organism-based; conditions: in vivo
[10] = test system: Hepatitis C virus (isolate H77); assay: Resistance ratio of EC50 for Hepatitis C virus genotype 1a H77 replicon NS5A Y93H mutant to EC50 for Hepatitis C virus genotype 1a H77 replicon NS5A
[11] = test system: Hepatitis C virus (isolate H77); assay: Ratio of EC50 for Hepatitis C virus genotype 1a H77 replicon NS5A in presence of 40% human plasma to EC50 for Hepatitis C virus genotype 1a H77 replicon NS5A in absence of 40% human plasma
[12] = Plasma clearance in CD1 mouse at 5 mg/kg, iv after 0.1 to 24 hrs; assay type: ADME, organism-based
[13] = Plasma clearance in Sprague-Dawley rat at 3 mg/kg, iv administered as bolus dose after 0.1 to 24 hrs; assay type: ADME, organism-based
[14] = Inhibition of Hepatitis C virus genotype 4a replicon NS5A transfected in human HuH7 cells assessed as decrease in replication of viral replicon after 4 days by luciferase reporter gene assay; assay type: cell-based, Hepatitis C virus subtype 4a; conditions: Huh-7, 96 h
[15] = test system: Hepatitis C virus (isolate H77); assay: Resistance ratio of EC50 for Hepatitis C virus genotype 1a H77 replicon NS5A Q30R mutant to EC50 for Hepatitis C virus genotype 1a H77 replicon NS5A
[16] = test system: Hepatitis C virus (isolate H77); assay: Resistance ratio of EC50 for Hepatitis C virus genotype 1a H77 replicon NS5A Y93C mutant to EC50 for Hepatitis C virus genotype 1a H77 replicon NS5A
[17] = Inhibition of Hepatitis C virus genotype 1b Con1 replicon NS5A transfected in human HuH7 cells assessed as decrease in replication of viral replicon after 4 days by luciferase reporter gene assay; assay type: cell-based, Hepatitis C virus (isolate Con1); conditions: Huh-7, 96 h
[18] = Half life in Sprague-Dawley rat at 3 mg/kg, iv administered as bolus dose after 0.1 to 24 hrs; assay type: ADME, organism-based; conditions: in vivo
[19] = AUC in CD1 mouse at 5 mg/kg, po after 0.25 to 24 hrs; assay type: ADME, organism-based; set-up: time 0.25-24 hr, dose 5 mg/kg, route oral; conditions: in vivo
[20] = Inhibition of Hepatitis C virus genotype 3a replicon NS5A transfected in human HuH7 cells assessed as decrease in replication of viral replicon after 4 days by luciferase reporter gene assay; assay type: cell-based, Hepatitis C virus subtype 3a; conditions: Huh-7, 96 h
[21] = Oral bioavailability in Sprague-Dawley rat at 3 mg/kg administered via gavage after 0.25 to 24 hrs; assay type: ADME, organism-based; conditions: in vivo
[22] = Inhibition of Hepatitis C virus genotype 1a H77 replicon NS5A Q30R mutant transfected in human HuH7 cells assessed as decrease in replication of viral replicon after 4 days by luciferase reporter gene assay; assay type: cell-based, Hepatitis C virus (isolate H77); conditions: Huh-7, 96 h
[23] = Inhibition of Hepatitis C virus genotype 2b replicon NS5A transfected in human HuH7 cells assessed as decrease in replication of viral replicon after 4 days by luciferase reporter gene assay; assay type: cell-based, Hepatitis C virus subtype 2b; conditions: Huh-7, 96 h
[24] = Inhibition of Hepatitis C virus genotype 1a H77 replicon NS5A transfected in human HuH7 cells assessed as decrease in replication of viral replicon after 4 days by luciferase reporter gene assay; assay type: cell-based, Hepatitis C virus (isolate H77); conditions: Huh-7, 96 h
[25] = Inhibition of Hepatitis C virus genotype 1b Con1 replicon NS5A transfected in human HuH7 cells assessed as decrease in replication of viral replicon in presence of 40% human plasma after 4 days by luciferase reporter gene assay; assay type: cell-based, Hepatitis C virus (isolate Con1); conditions: Huh-7, Plasma, 96 h
[26] = Cmax in Sprague-Dawley rat at 3 mg/kg, po administered via gavage after 0.25 to 24 hrs; assay type: ADME, organism-based; set-up: dose 3 mg/kg, route oral; conditions: in vivo

COC(=O)N[C@H](C(=O)N1CCC[C@H]1c1nc2ccc([C@H]3CC[C@H](c4ccc5nc([C@@H]6CCCN6C(=O)[C@@H](NC(=O)OC)C(C)C)[nH]c5c4)N3c3ccc(C(C)(C)C)cc3)cc2[nH]1)C(C)C
Cmax [1]: 270 ng/mL
half-life [2]: 2.6 h
EC50 [3]: 8 pM
EC50 [4]: 155 pM
EC50 [5]: 155 pM
AUC [6]: 560 ng·h/mL
bioavailability [7]: 11%
Ratio EC50 [8]: 4
half-life [9]: 2 h
Ratio EC50 [10]: 239
Ratio EC50 [11]: 10 to 20
clearance [12]: 6.33 mL/min/kg
clearance [13]: 17.7 mL/min/kg
EC50 [14]: 6 pM
Ratio EC50 [15]: 14
Ratio EC50 [16]: 8
EC50 [17]: 14 pM
half-life [18]: 4.1 h
AUC [19]: 1390 ng·h/mL
EC50 [20]: 14 pM
bioavailability [21]: 20%
EC50 [22]: 27 pM
EC50 [23]: 10 pM
EC50 [24]: 2 to 11 pM
EC50 [25]: 272 pM
Cmax [26]: 60 ng/mL

Reference: ChEMBL document CHEMBL3864160, “Discovery of fluorobenzimidazole HCV NS5A inhibitors” (Bioorg Med Chem Lett, 2016)
